Assay results as given in patent publication US6706740B2, “Fungicidal heterocyclic aromatic amides and their compositions, methods of use and preparation” (Dow AgroSciences LLC, priority 1999, dated 2004).

Each compound was assayed on Magnaporthe grisea (Pyricularia oryzae—PYRIOR) (assay: microbe, parasite or virus in culture). Conditions: Pyricularia oryzae, read-out: PYRIOR in vitro Growth Inhibition.
Assay type: cell-based

| SMILES | inhibition at 25 ppm [%] |
| --- | --- |
| CC(NC(=O)c1nc(Br)ccc1O)c1ccc(Oc2ccccc2)cc1 (centres unmarked) [Compound 490] | < 80 |
| COc1cccc(Oc2ccc(NC(=O)c3nccc(OC)c3O)cc2)c1 [Compound 434] | < 80 |
| COc1ccnc(C(=O)N[C@H]2[C@@H](OC(C)=O)O[C@H](COC(C)=O)[C@@H](OC(C)=O)[C@@H]2OC(C)=O)c1O [Compound 335] | < 80 |
| COc1ccnc(C(=O)N[C@H]2CC3OC2[C@H](C)[C@@H](OCc2ccccc2)[C@H]3C)c1O (some centres unmarked) [Compound 321] | < 80 |

What follows are compounds tested on Phytophthora infestans (PHYTIN) (assay: microbe, parasite or virus in culture). Conditions: Phytophthora infestans, read-out: PHYTIN in vitro Growth Inhibition.
Assay type: cell-based

| SMILES | inhibition at 25 ppm [%] |
| --- | --- |
| CC(NC(=O)c1nc(Br)ccc1O)c1ccc(Oc2ccccc2)cc1 (centres unmarked) [Compound 490] | < 80 |
| COc1cccc(Oc2ccc(NC(=O)c3nccc(OC)c3O)cc2)c1 [Compound 434] | < 80 |
| COc1ccnc(C(=O)N[C@H]2[C@@H](OC(C)=O)O[C@H](COC(C)=O)[C@@H](OC(C)=O)[C@@H]2OC(C)=O)c1O [Compound 335] | < 80 |
| COc1ccnc(C(=O)N[C@H]2CC3OC2[C@H](C)[C@@H](OCc2ccccc2)[C@H]3C)c1O (some centres unmarked) [Compound 321] | < 80 |

The compounds below were run on Mycosphaerella graminicola (Septoria tritici—SEPTTR) (assay: In vitro fungal growth inhibition, Mycosphaerella graminicola (SEPTTR)). Conditions: Zymoseptoria tritici; 25 ppm in growth medium; read-out: SEPTTR in vitro Growth Inhibition.
Assay type: cell-based

| SMILES | inhibition at 25 ppm [%] |
| --- | --- |
| COc1cccc(Oc2ccc(NC(=O)c3nccc(OC)c3O)cc2)c1 [Compound 434] | > 80 |
| COc1ccnc(C(=O)N[C@H]2[C@@H](OC(C)=O)O[C@H](COC(C)=O)[C@@H](OC(C)=O)[C@@H]2OC(C)=O)c1O [Compound 335] | < 80 |
| COc1ccnc(C(=O)N[C@H]2CC3OC2[C@H](C)[C@@H](OCc2ccccc2)[C@H]3C)c1O (some centres unmarked) [Compound 321] | < 80 |

Same assay, conditions: Zymoseptoria tritici; 25 ppm in the growth medium; read-out: SEPTTR in vitro Growth Inhibition

| SMILES | inhibition at 25 ppm [%] |
| --- | --- |
| CC(NC(=O)c1nc(Br)ccc1O)c1ccc(Oc2ccccc2)cc1 (centres unmarked) [Compound 490] | < 80 |

The compounds below were run on Puccinia recondita—PUCCRT (assay: Brown Rust of Wheat, in vivo whole plant, 24 Hour Protectant). Conditions: Puccinia; 100 ppm spray, 24 hour protectant, wheat; control of fungal infection vs untreated plants; read-out: PUCCRT in vivo 1 Day Protectant.

| SMILES | pest or weed control at 100 ppm [%] |
| --- | --- |
| COc1ccnc(C(=O)N[C@H]2CC3OC2[C@H](C)[C@@H](OCc2ccccc2)[C@H]3C)c1O (some centres unmarked) [Compound 321] | 25 to 74 |

Same assay, conditions: Puccinia; 100 ppm spray, wheat, 24 hour protectant; control of fungal infection vs untreated plants; read-out: PUCCRT in vivo 1 Day Protectant

| SMILES | pest or weed control at 100 ppm [%] |
| --- | --- |
| COc1cccc(Oc2ccc(NC(=O)c3nccc(OC)c3O)cc2)c1 [Compound 434] | < 25 |
| COc1ccnc(C(=O)N[C@H]2[C@@H](OC(C)=O)O[C@H](COC(C)=O)[C@@H](OC(C)=O)[C@@H]2OC(C)=O)c1O [Compound 335] | < 25 |

Same assay, conditions: Puccinia; wheat plants sprayed at 100 ppm, inoculated after 24 hours; control of fungal infection vs untreated plants; read-out: PUCCRT in vivo 1 Day Protectant

| SMILES | pest or weed control at 100 ppm [%] |
| --- | --- |
| CC(NC(=O)c1nc(Br)ccc1O)c1ccc(Oc2ccccc2)cc1 (centres unmarked) [Compound 490] | 25 to 74 |

The compounds below were run on Phytophthora infestans—PHYTIN (assay: whole plant or invertebrate). Conditions: Phytophthora, in Solanum lycopersicum, 24 h, read-out: PHYTIN in vivo 1 Day Protectant.
Assay type: in vivo

| SMILES | pest or weed control at 100 ppm [%] |
| --- | --- |
| CC(NC(=O)c1nc(Br)ccc1O)c1ccc(Oc2ccccc2)cc1 (centres unmarked) [Compound 490] | < 25 |
| COc1cccc(Oc2ccc(NC(=O)c3nccc(OC)c3O)cc2)c1 [Compound 434] | < 25 |
| COc1ccnc(C(=O)N[C@H]2[C@@H](OC(C)=O)O[C@H](COC(C)=O)[C@@H](OC(C)=O)[C@@H]2OC(C)=O)c1O [Compound 335] | 25 to 74 |
| COc1ccnc(C(=O)N[C@H]2CC3OC2[C@H](C)[C@@H](OCc2ccccc2)[C@H]3C)c1O (some centres unmarked) [Compound 321] | < 25 |

Each compound was assayed on Erysiphe graminis—ERYSGT (assay: Powdery Mildew of Wheat, in vivo whole plant, 24 Hour Protectant). Conditions: Erysiphe; 100 ppm spray, 24 hour protectant, wheat; control of fungal infection vs untreated plants; read-out: ERYSGT in vivo 1 Day Protectant.

| SMILES | pest or weed control at 100 ppm [%] |
| --- | --- |
| COc1ccnc(C(=O)N[C@H]2CC3OC2[C@H](C)[C@@H](OCc2ccccc2)[C@H]3C)c1O (some centres unmarked) [Compound 321] | < 25 |

Same assay, conditions: Erysiphe; 100 ppm spray, wheat, 24 hour protectant; control of fungal infection vs untreated plants; read-out: ERYSGT in vivo 1 Day Protectant

| SMILES | pest or weed control at 100 ppm [%] |
| --- | --- |
| COc1cccc(Oc2ccc(NC(=O)c3nccc(OC)c3O)cc2)c1 [Compound 434] | 25 to 74 |
| COc1ccnc(C(=O)N[C@H]2[C@@H](OC(C)=O)O[C@H](COC(C)=O)[C@@H](OC(C)=O)[C@@H]2OC(C)=O)c1O [Compound 335] | < 25 |

Same assay, conditions: Erysiphe; wheat plants sprayed at 100 ppm, inoculated after 24 hours; control of fungal infection vs untreated plants; read-out: ERYSGT in vivo 1 Day Protectant

| SMILES | pest or weed control at 100 ppm [%] |
| --- | --- |
| CC(NC(=O)c1nc(Br)ccc1O)c1ccc(Oc2ccccc2)cc1 (centres unmarked) [Compound 490] | < 25 |

Each compound was assayed on Ustilago maydis (USTIMA) (assay: microbe, parasite or virus in culture). Conditions: Mycosarcoma maydis, read-out: USTIMA in vitro Growth Inhibition.
Assay type: cell-based

| SMILES | inhibition at 25 ppm [%] |
| --- | --- |
| CC(NC(=O)c1nc(Br)ccc1O)c1ccc(Oc2ccccc2)cc1 (centres unmarked) [Compound 490] | < 80 |
| COc1cccc(Oc2ccc(NC(=O)c3nccc(OC)c3O)cc2)c1 [Compound 434] | < 80 |
| COc1ccnc(C(=O)N[C@H]2[C@@H](OC(C)=O)O[C@H](COC(C)=O)[C@@H](OC(C)=O)[C@@H]2OC(C)=O)c1O [Compound 335] | < 80 |
| COc1ccnc(C(=O)N[C@H]2CC3OC2[C@H](C)[C@@H](OCc2ccccc2)[C@H]3C)c1O (some centres unmarked) [Compound 321] | < 80 |

The compounds below were run on Leptosphaeria nodorum—LEPTNO (assay: Glume Blotch of Wheat, in vivo whole plant, 24 Hour Protectant). Conditions: Leptosphaeria; 100 ppm spray, 24 hour protectant, wheat; control of fungal infection vs untreated plants; read-out: LEPTNO in vivo 1 Day Protectant.

| SMILES | pest or weed control at 100 ppm [%] |
| --- | --- |
| COc1ccnc(C(=O)N[C@H]2CC3OC2[C@H](C)[C@@H](OCc2ccccc2)[C@H]3C)c1O (some centres unmarked) [Compound 321] | < 25 |

Same assay, conditions: Leptosphaeria; 100 ppm spray, wheat, 24 hour protectant; control of fungal infection vs untreated plants; read-out: LEPTNO in vivo 1 Day Protectant

| SMILES | pest or weed control at 100 ppm [%] |
| --- | --- |
| COc1cccc(Oc2ccc(NC(=O)c3nccc(OC)c3O)cc2)c1 [Compound 434] | 25 to 74 |
| COc1ccnc(C(=O)N[C@H]2[C@@H](OC(C)=O)O[C@H](COC(C)=O)[C@@H](OC(C)=O)[C@@H]2OC(C)=O)c1O [Compound 335] | 25 to 74 |

Same assay, conditions: Leptosphaeria; wheat plants sprayed at 100 ppm, inoculated after 24 hours; control of fungal infection vs untreated plants; read-out: LEPTNO in vivo 1 Day Protectant

| SMILES | pest or weed control at 100 ppm [%] |
| --- | --- |
| CC(NC(=O)c1nc(Br)ccc1O)c1ccc(Oc2ccccc2)cc1 (centres unmarked) [Compound 490] | < 25 |

These compounds were tested on Septoria tritici—SEPTTR (assay: Leaf Blotch of Wheat, in vivo whole plant, 24 Hour Protectant). Conditions: Zymoseptoria tritici, 24 h, 100 ppm spray, 24 hour protectant, wheat; control of fungal infection vs untreated plants; read-out: SEPTTR in vivo 1 Day Protectant.

| SMILES | pest or weed control at 100 ppm [%] |
| --- | --- |
| COc1ccnc(C(=O)N[C@H]2CC3OC2[C@H](C)[C@@H](OCc2ccccc2)[C@H]3C)c1O (some centres unmarked) [Compound 321] | < 25 |

Same assay, conditions: Zymoseptoria tritici, 24 h, 100 ppm spray, wheat, 24 hour protectant; control of fungal infection vs untreated plants; read-out: SEPTTR in vivo 1 Day Protectant

| SMILES | pest or weed control at 100 ppm [%] |
| --- | --- |
| COc1cccc(Oc2ccc(NC(=O)c3nccc(OC)c3O)cc2)c1 [Compound 434] | < 25 |
| COc1ccnc(C(=O)N[C@H]2[C@@H](OC(C)=O)O[C@H](COC(C)=O)[C@@H](OC(C)=O)[C@@H]2OC(C)=O)c1O [Compound 335] | < 25 |

Same assay, conditions: Zymoseptoria tritici, 24 h, wheat plants sprayed at 100 ppm, inoculated after 24 hours; control of fungal infection vs untreated plants; read-out: SEPTTR in vivo 1 Day Protectant

| SMILES | pest or weed control at 100 ppm [%] |
| --- | --- |
| CC(NC(=O)c1nc(Br)ccc1O)c1ccc(Oc2ccccc2)cc1 (centres unmarked) [Compound 490] | 25 to 74 |

What follows are compounds tested on Rhizoctonia solani (RHIZSO) (assay: microbe, parasite or virus in culture). Conditions: Rhizoctonia solani, read-out: RHIZSO in vitro Growth Inhibition.
Assay type: cell-based

| SMILES | inhibition at 25 ppm [%] |
| --- | --- |
| CC(NC(=O)c1nc(Br)ccc1O)c1ccc(Oc2ccccc2)cc1 (centres unmarked) [Compound 490] | < 80 |
| COc1cccc(Oc2ccc(NC(=O)c3nccc(OC)c3O)cc2)c1 [Compound 434] | < 80 |
| COc1ccnc(C(=O)N[C@H]2[C@@H](OC(C)=O)O[C@H](COC(C)=O)[C@@H](OC(C)=O)[C@@H]2OC(C)=O)c1O [Compound 335] | < 80 |
| COc1ccnc(C(=O)N[C@H]2CC3OC2[C@H](C)[C@@H](OCc2ccccc2)[C@H]3C)c1O (some centres unmarked) [Compound 321] | < 80 |

What follows are compounds tested on Stagonospora nodorum (Leptosphaeria nodorum—LEPTNO) (assay: In vitro fungal growth inhibition, Stagonospora nodorum (LEPTNO)). Conditions: Leptosphaeria; 25 ppm in growth medium; read-out: LEPTNO in vitro Growth Inhibition.
Assay type: cell-based

| SMILES | inhibition at 25 ppm [%] |
| --- | --- |
| COc1cccc(Oc2ccc(NC(=O)c3nccc(OC)c3O)cc2)c1 [Compound 434] | > 80 |
| COc1ccnc(C(=O)N[C@H]2[C@@H](OC(C)=O)O[C@H](COC(C)=O)[C@@H](OC(C)=O)[C@@H]2OC(C)=O)c1O [Compound 335] | < 80 |
| COc1ccnc(C(=O)N[C@H]2CC3OC2[C@H](C)[C@@H](OCc2ccccc2)[C@H]3C)c1O (some centres unmarked) [Compound 321] | < 80 |

Same assay, conditions: Leptosphaeria; 25 ppm in the growth medium; read-out: LEPTNO in vitro Growth Inhibition

| SMILES | inhibition at 25 ppm [%] |
| --- | --- |
| CC(NC(=O)c1nc(Br)ccc1O)c1ccc(Oc2ccccc2)cc1 (centres unmarked) [Compound 490] | < 80 |
